Measured values: publication PMC12155096 (International Journal of Molecular Sciences, 2025)
Counter-ions that a name gives are not always drawn. Like-named read-outs stand apart in the source and are kept apart here.

Key:
[1] = molecular target: CYP3A4 (Homo sapiens, UniProt P08684); experiment: biochemical
[2] = molecular target: T1, human CYP2C19 (Homo sapiens, UniProt P33261); experiment: biochemical
[3] = molecular target: T2, human CYP1A2 (Homo sapiens, UniProt P05177)
T2 sequence (P05177 1-516): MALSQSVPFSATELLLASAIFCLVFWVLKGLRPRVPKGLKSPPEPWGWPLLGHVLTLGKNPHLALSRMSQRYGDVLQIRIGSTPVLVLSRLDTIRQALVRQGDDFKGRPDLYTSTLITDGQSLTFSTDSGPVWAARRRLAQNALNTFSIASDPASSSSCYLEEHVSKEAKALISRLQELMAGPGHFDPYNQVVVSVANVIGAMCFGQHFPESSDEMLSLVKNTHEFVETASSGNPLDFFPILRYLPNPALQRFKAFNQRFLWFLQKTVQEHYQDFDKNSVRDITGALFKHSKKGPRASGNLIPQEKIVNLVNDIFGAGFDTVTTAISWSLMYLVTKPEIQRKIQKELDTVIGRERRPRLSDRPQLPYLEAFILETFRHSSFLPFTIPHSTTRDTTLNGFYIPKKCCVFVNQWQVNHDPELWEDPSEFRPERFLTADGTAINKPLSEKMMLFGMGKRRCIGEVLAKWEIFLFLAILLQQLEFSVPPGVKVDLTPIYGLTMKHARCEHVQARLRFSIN

[4] = molecular target: human CYP2D6 (Homo sapiens, UniProt P10635)
[5] = molecular target: human CYP2C9 (Homo sapiens, UniProt P11712); experiment: biochemical
[6] = molecular target: T1, human CYP2C19
[7] = CYP3A4 AC50 (half-maximal activity concentration)
[8] = CYP2C19 AC50 (half-maximal activity concentration)
[9] = CYP2C9 AC50 (half-maximal activity concentration)

T1 sequence (P33261 whole entry): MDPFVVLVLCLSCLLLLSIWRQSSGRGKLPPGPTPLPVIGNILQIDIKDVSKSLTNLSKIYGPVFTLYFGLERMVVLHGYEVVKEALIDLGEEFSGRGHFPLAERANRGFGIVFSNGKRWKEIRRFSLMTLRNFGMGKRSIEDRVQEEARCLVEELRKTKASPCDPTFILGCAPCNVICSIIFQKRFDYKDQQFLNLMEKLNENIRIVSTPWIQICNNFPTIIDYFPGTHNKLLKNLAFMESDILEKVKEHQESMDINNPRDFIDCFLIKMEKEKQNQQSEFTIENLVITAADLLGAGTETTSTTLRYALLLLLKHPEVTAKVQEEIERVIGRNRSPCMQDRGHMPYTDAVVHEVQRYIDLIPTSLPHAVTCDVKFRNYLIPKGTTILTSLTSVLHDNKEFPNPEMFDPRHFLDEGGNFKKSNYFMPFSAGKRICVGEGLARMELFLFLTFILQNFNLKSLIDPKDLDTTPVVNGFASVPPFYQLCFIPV
Chain of human CYP2C9 (P11712 whole entry): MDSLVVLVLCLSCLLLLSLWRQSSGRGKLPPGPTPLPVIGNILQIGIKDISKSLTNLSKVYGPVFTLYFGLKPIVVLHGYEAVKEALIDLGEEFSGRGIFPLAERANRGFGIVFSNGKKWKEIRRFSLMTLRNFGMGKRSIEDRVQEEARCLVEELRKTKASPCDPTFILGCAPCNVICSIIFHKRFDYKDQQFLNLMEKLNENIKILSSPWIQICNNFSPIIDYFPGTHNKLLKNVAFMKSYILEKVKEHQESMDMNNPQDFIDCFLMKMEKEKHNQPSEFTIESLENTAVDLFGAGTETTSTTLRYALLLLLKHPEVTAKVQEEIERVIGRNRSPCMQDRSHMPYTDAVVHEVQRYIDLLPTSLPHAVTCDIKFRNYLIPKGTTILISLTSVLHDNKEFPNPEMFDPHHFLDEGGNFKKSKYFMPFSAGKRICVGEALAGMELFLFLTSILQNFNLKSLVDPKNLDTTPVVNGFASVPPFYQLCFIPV
Chain of CYP3A4 (P08684 whole entry): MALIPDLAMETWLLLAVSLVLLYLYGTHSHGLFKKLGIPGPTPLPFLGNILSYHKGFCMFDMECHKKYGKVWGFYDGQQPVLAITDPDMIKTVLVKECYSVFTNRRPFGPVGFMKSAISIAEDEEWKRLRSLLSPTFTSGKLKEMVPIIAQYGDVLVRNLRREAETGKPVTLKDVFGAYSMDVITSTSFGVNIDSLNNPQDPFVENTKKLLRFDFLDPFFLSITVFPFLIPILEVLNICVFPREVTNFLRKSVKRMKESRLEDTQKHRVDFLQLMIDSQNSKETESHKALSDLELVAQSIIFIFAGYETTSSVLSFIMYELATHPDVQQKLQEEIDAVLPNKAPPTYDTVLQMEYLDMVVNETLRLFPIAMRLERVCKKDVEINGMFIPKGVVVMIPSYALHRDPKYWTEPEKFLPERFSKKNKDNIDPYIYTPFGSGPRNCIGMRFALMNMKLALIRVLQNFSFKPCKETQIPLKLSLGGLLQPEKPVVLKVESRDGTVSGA
Chain of human CYP2D6 (P10635 whole entry): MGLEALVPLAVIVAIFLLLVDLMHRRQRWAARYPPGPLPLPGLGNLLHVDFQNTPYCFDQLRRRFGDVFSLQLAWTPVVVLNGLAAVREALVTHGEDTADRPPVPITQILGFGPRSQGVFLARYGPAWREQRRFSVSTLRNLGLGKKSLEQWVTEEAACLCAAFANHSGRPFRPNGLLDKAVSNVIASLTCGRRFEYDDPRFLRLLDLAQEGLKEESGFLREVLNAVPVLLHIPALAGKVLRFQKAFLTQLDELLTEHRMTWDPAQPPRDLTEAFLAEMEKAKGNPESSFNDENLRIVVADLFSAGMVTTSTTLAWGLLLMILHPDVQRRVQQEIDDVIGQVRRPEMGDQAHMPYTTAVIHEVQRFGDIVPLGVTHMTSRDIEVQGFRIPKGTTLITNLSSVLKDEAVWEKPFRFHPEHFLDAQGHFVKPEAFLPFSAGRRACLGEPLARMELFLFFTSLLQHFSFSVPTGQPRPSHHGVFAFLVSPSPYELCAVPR

Compound	AC50 [1]	AC50 [2]	CYP1A2 AC50 (half-maximal activity concentration) [3]	CYP2D6 AC50 (half-maximal activity concentration) [4]	AC50 [5]	AC50 [1, 7]	AC50 [2, 8]	AC50 [5, 9]	CYP2C19 AC50 (half-maximal activity concentration) [6]
CC(=O)OC(c1ccccc1)C(Cl)(Cl)Cl (centres unmarked) [2,2,2-Trichloro-1-phenylethyl acetate]	23.9 µM	35.6 µM	Inactive	Inactive	71.3 µM				
O=C1OC2(c3ccccc31)c1ccc(O)c(Br)c1Oc1c2ccc(O)c1Br [4',5'-Dibromofluorescein]	27.2 µM	53.7 µM	Inconclusive inhibitor	Inactive	46.2 µM				
NNS(=O)(=O)c1ccc(Oc2ccc(S(=O)(=O)NN)cc2)cc1 [4,4'-Oxybis(benzenesulfonhydrazide)]	7.84 µM	16.8 µM	Inactive	Inconclusive inhibitor	6 µM				
C[C@]12CCC(=O)C=C1CC[C@@H]1[C@@H]2CC[C@]2(C)C(=O)CC[C@@H]12 [4-Androstene-3,17-dione]			Inactive	Inconclusive inhibitor		8.36 µM	33.3 µM	71.9 µM	
CCOCN(C(=O)CCl)c1c(C)cccc1CC [Acetochlor]			Inconclusive inhibitor	Inactive		8.35 µM	9.51 µM	31.2 µM	
COC(=O)C(C)N(C(=O)Cc1ccccc1)c1c(C)cccc1C (centres unmarked) [Benalaxyl]			Inactive	Inconclusive inhibitor		4.54 µM	5.23 µM	22.6 µM	
NS(=O)(=O)c1ccc(NCc2ccccc2)cc1 [Benzylsulfamide]	7.8 ± 0.9 µM	3.82 ± 1.44 µM	Inactive	Inactive	18.6 ± 5.47 µM				
C[C@]12CCC(=O)C=C1C=C[C@@H]1[C@@H]2CC[C@@]2(C)[C@H]1CC[C@@]21CCC(=O)O1 [Canrenone]			Inconclusive inhibitor	Inactive		3.48 µM	1.67 µM	32.2 µM	
CC(=O)O[C@]1(C(C)=O)CC[C@H]2[C@@H]3C=C(Cl)C4=CC(=O)CC[C@]4(C)[C@H]3CC[C@@]21C [Chlormadinone acetate]			Inactive	Inactive		2.05 µM	5.67 µM	14.9 µM	
CC(=O)O[C@H]1CC[C@@]2(C)C(=CC[C@@H]3[C@@H]2CC[C@]2(C)C(=O)CC[C@@H]32)C1 [Dehydroepiandrosterone acetate]			Inconclusive inhibitor	Inactive		6.03 µM	28.4 µM	28.4 µM	
CC1(C)[C@H](C(=O)O[C@H](C#N)c2cccc(Oc3ccccc3)c2)[C@@H]1C=C(Br)Br [Deltamethrin]			Inconclusive inhibitor	Inconclusive inhibitor		9.13 µM	8.8 µM	3.68 µM	
CCCCCCCCCCOS(=O)(=O)O [Sodium decyl sulfate]	85.8 µM		Inactive	Inconclusive inhibitor	38.5 µM				Inactive
O=C(O)Cc1cc(I)c(Oc2cc(I)c(O)c(I)c2)c(I)c1 [Tetrac]	9.83 µM		Inactive	Inactive	46.5 µM				Inactive
